From article PMC10366102, “Dose escalation and expansion cohorts in patients with advanced breast cancer in a Phase I study of the CDK7-inhibitor samuraciclib” (Nature Communications, 2023)
pIC50: −log10 of the molar value.

Experiments:
[1] = design: method as in ref IB; details: ref IB; cited from earlier work
[2] = design: method as in ref IB; details: ref IB, cited from earlier work
[3] = tested on: phosphorylation of RNA Pol II, CDK1 and 2; design: method as in ref IB; details: in vitro and in vivo, tumour and normal cells; ref IB; cited from earlier work
[4] = tested on: HR+/HER2− advanced breast cancer patients post-CDK4/6 inhibitor; details: female, human, in vivo
Description: In each cohort the dose of fulvestrant was 500 mg every 28 ± 2 days, with an additional 500 mg dose given 14 ± 2 days after the first dose. Cohort 1 tested samuraciclib 240 mg OD continuous dosing. If the DLT stopping criteria were not met, Cohort 2 commenced enrollment at the Module 1A MTD. Patients underwent regular safety monitoring and 8-week scans reported using RECIST V1.1[32].
As Module 1A was a ‘first time in human’ safety study, initial efficacy was evaluated as a secondary endpoint using the DCR, defined as the percentage of patients with a complete response (CR), PR or stabilization of disease at first on treatment RECIST assessment. To allow for the evaluation of longer-term benefit, Module 1B-1 and Module 2A used the CBR as a secondary endpoint, defined as the percentage of patients with CR or PR or stabilization of disease for at least 24 weeks between enrollment and disease progression or death due to any cause. In addition, the ORR was assessed, defined as the percentage of patients who had at least 1 objective response (CR or PR) prior to any evidence of progression. […] Statistical analyses of PFS using the Kaplan-Meier method were performed on the ITT population - defined as all enrolled patients. AEs were summarized from the Safety Population - defined as all patients who received at least 1 dose of samuraciclib - using the MedDRA system organ class (SOC), preferred term (PT), and graded according to CTCAE V5.0 (Supplementary Information).
DLTs recorded in the first cycle. Patients were considered evaluable if they completed the first cycle or
discontinued therapy in the first cycle due to a DLT. Patients in a cohort were replaced if they could not
complete the first cycle unless this was due to a DLT.
Part A was planned to have two dose cohorts with up to 6 evaluable patients to be enrolled per
cohort. In each cohort, the dose of fulvestrant was fixed at the standard dose of 500mg given at intervals
of 28±2 days with an additional 500mg dose given 14±2 days after the first dose. Fulvestrant was
administered as two consecutive slow intramuscular (IM) injections (1-2 minutes) of 250mg in 5 mL,
one in each buttock (gluteal area). Pre-and peri-menopausal women also had to have commenced
treatment with a luteinizing hormone-releasing hormone (LHRH) agonist at least 4 weeks prior to first
dose of study medication. Patients continued to receive treatment in 28-day cycles until they no longer
gained clinical benefit or they discontinued treatment.
Cohort 1 tested samuraciclib at 240mg OD as monotherapy, which is approximately 33% lower than the
current maximum tolerated dose (MTD) of 360mg. If no DLT was recorded in Cycle 1 in the first 3
evaluable patients, Cohort 2 commenced enrolment at 360mg of samuraciclib OD.
DLT in Cohort 1, a further 3 evaluable patients were assessed.
started enrolment. If ≥ 2/3 or ≥ 2/6 patients in Cohort 1 experienced a DLT, dose escalation was
stopped. In Cohort 2, if 0/3 or 1/3 evaluable patients experienced a DLT, the cohort was expanded to 6
patients. If ≥ 2/3 or ≥ 2/6 patients experienced a DLT, the Cohort 1 dosing regimen (samuraciclib at
240mg and fulvestrant at 500mg) was determined as the preliminary Phase 2 dosing regimen. If < 2/6
considered the recommended Phase 2 regimen.
The SRC was convened to decide whether and when to open the second samuraciclib dosing cohort and
which dosing regimen to advance to randomized Phase 2 testing. If the SRC considered safety and/or
patients who had at least one response of complete response (CR) or partial response (PR) prior to any
evidence of progression. The percentage change in tumor size was derived at each tumor imaging
assessment by the best percentage change from baseline in the sum of the diameters of target lesions. In
Module 1A initial efficacy was evaluated using the disease control rate (DCR) defined as percentage of
participants with a complete response (CR) or partial response (PR) or stabilization of disease at first on
treatment RECIST assessment.

[5] = tested on: human peripheral blood lymphocytes; design: method as in ref IB; details: ref IB; cited from earlier work
[6] = design: method as in ref IB; details: ref IB; cited from earlier work; remark: listed apart in the source
CYP3A4 = tested on: CYP3A4; design: method as in ref IB; details: human microsomes; ref IB; cited from earlier work
[7] = tested on: peripheral blood mononucleated cells; assay: Antibody validation, flow cytometry of cells treated ex vivo, RNA pol II pSer5; format: cell-based, human
Description: SUPPLEMENTARY TABLE 12: ANTIBODIES USED
Antibody Application Supplier & Description Dilution/ Validation […]
RNA pol II Immunohistoche Abcam Rabbit Immuno- Immunohistochemistry: pSer5 mistry (Fig 3); ab193467 monoclonal histochemistry: Positive nuclear staining Flow cytometry [EPR19015] to 1 in 8000 in normal spleen
(Supplementary RNA 0.02 µg/mL samples. Significant
Figure 5) polymerase II reduction in staining in CTD repeat Flow cytometry: MCF7 cell line treated
YSPTSPS 1 in 100 with samuraciclib. […]
intensity of labelling in […]
pCDK1/2/ Immunohistoche Abcam Rabbit 1 in 500 Immunohistochemistry:
3 mistry (Fig 3) ab201008 monoclonal 1.2 μg/mL Positive nuclear staining [EPR19546] to in normal tonsil samples.
T161) + CDK2 staining in MCF7 cell
(phospho T160) line treated with
Goat anti- Flow cytometry Abcam Polyclonal goat 1 in 1000 Flow cytometry: No Rabbit IgG (Supplementary ab150077 anti-rabbit IgG 2.0 μg/mL significant binding to H&L Figure 5) H&L peripheral blood
AlexaFluor conjugated to mononucleated cells in 488 AlexaFluor 488 absence of primary

## CC(C)c1cnn2c(NCc3ccccc3)cc(NC[C@H]3CCNC[C@@H]3O)nc12 [samuraciclib, Samuraciclib]
[1]
  Phototoxicity: not phototoxic
[2]; dog
  Oral bioavailability: good oral bioavailability
[2]; dogs
  Plasma clearance: high
  Volume of distribution: high volume of distribution
[3]
  Phosphorylation of RNA Pol II, CDK1 and 2: inhibits the phosphorylation
[4]
  Discontinued due to related gastrointestinal AEs: […]
  Discontinued due to unrelated AEs: […]
  Drug-related: ALT increased: […]
  Drug-related: AST increased: […]
  Drug-related: Abdominal pain: […]
  Drug-related: Abdominal pain (second line so named): […]
  Drug-related: Anaemia: […]
  Drug-related: Constipation: […]
  Drug-related: Decreased appetite: […]
  Drug-related: Dehydration: […]
  Drug-related: Diarrhoea: […]
  Drug-related: Dry mouth: […]
  Drug-related: Dry skin: […]
  Drug-related: Dysgeusia: […]
  Drug-related: Dysphagia: […]
  Drug-related: Fatigue: […]
  Drug-related: Flatulence: […]
  Drug-related: Headache: […]
  Drug-related: Mouth ulceration: […]
  Drug-related: Mucosal inflammation: […]
  Drug-related: Muscular weakness: […]
  Drug-related: Nausea: […]
  Drug-related: Rash: […]
  Drug-related: Stomatitis: […]
  Drug-related: Taste disorder: […]
  Drug-related: Thrombocytopenia: […]
  Drug-related: Vomiting: […]
  Drug-related: Weight decreased: […]
  Participants with any drug-related TEAE: […]
[5]
  Genotoxicity in micronucleus tests: Low potential for genotoxicity
[6]
  Solubility: pH-dependent solubility
CYP3A4
  pIC50: […]
[7]
  RNA pol II pSer5 intensity of labelling: Significant reduction in
